Reference: patent US11453663B2, “Substituted propanamides as inhibitors of nucleases” (MASARYKOVA UNIVERZITA, priority 2018, dated 2022)

Columns and labels:
[1] = molecular target: MRE11 (Homo sapiens (Human), UniProt P49959); assay: HTS nuclease assay (fluorescence-quenched 5′ overhang DNA substrate cleavage); format: biochemical; settings: 18 nM MRE11, 40 nM DNA substrate, analysis at t=4 h
Description: DNA Substrate Preparation
The DNA substrate is prepared by mixing the oligonucleotides listed below in a 1:1 ratio to reach a final concentration of 6 μM in a buffer containing 50 mM Tris pH 7.5, 100 mM NaCl and 8 mM MgCl2.
The mixture is heat for 3 min at 65° C. and let to cool down slowly to RT. Then it is stored at −20° C.
This substrate is a 5′ overhang, which is a preferred substrate of MRE11. […] The fluorescence increases upon substrate cleavage by MRE11, when separation of the two labels occur.
The conditions of the assay are as follows:
Total reaction volume: 5 μL
DNA substrate concentration in the reaction: 40 nM
Inhibitor concentration range tested: 7 nM-50 μM
Each plate contains a series of high and low signal control wells, where no compound is added:
High signal: MRE11+DNA substrate
Low signal: DNA substrate only
These are used during data evaluation.
Two Extra Assay Controls:
1) To check whether unwinding of DNA by the compounds alone occurs.
The DNA substrate [CY5+BBQ(650)] is mixed with the compounds with no protein present.
The CY5 single stranded oligo is mixed with the compounds with no protein present.
The layout of the plates is created by the in-house software (CZ-Openscreen Prague) and this information is transferred to the robotic HTS station.
The reaction is started by the addition of DNA and the reaction time is counted from that moment, including a 15 min delay. Ten timepoints are measured:
The assay data analysis was performed at t=4 h. This corresponds to the time when the reaction is close to its maximum.
The data analysis was performed using the in-house software (CZ-Openscreen Prague) to obtain IC50 for each compound.

[2] = system: DR-GFP U2OS cells; assay: HR assay (GFP fluorescence by flow cytometry after I-SceI transfection); format: cell-based; settings: Homo sapiens, 25 μM inhibitor, 72 hours after transfection
Description: DR-GFP U2OS cells (Methods in Molecular Biology 2012, 920, 379.) were transfected with 2.5 μg of I-SceI-expressing pCAGGS vector and treated with the inhibitors at 25 μM concentration. 72 hours after the transfection, the cells were trypsinized and resuspended in 3% BSA in PBS. GFP fluorescence detection was carried out using a BD FACSVerse flow cytometer and data analyzed with FlowJo software.

Sequence of MRE11 (P49959 whole entry): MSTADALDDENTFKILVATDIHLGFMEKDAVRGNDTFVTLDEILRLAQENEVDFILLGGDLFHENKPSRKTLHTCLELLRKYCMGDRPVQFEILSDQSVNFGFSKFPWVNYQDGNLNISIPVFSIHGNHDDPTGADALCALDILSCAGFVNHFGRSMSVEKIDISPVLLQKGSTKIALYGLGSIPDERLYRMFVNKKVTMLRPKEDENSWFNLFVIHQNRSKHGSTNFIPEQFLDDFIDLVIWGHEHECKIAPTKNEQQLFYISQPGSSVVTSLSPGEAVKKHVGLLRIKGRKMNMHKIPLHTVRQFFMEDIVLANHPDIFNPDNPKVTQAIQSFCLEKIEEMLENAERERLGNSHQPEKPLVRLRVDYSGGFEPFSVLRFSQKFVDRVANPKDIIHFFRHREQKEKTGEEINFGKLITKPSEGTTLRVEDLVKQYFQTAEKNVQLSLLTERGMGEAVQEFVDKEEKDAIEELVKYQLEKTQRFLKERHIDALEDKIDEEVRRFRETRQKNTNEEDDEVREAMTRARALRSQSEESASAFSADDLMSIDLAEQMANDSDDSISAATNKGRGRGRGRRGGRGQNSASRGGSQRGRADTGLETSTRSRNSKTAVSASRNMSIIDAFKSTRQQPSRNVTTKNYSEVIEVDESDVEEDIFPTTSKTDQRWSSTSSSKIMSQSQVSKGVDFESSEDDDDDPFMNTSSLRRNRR

SMILES	IC50 [1] [µM]	inhibition at 25 µM [2] [%]
CC(C)(C)c1ccc(-c2csc(NC(=O)C(C#N)Cc3cc(C(C)(C)C)c(O)c(C(C)(C)C)c3)n2)cc1 (stereo not drawn) [Preparative Example 150, N-(4-(4-(tert-butyl)phenyl)thiazol-2-yl)-2-cyano-3-(3,5-di-tert-butyl-4-hydroxyphenyl)propanamide]	–	> 75
Cc1cc(CC(C#N)C(=O)Nc2nc(-c3ccc(C(C)(C)C)cc3)cs2)cc(C)c1O (stereo not drawn) [Preparative Example 149, N-(4-(4-(tert-butyl)phenyl)thiazol-2-yl)-2-cyano-3-(4-hydroxy-3,5-dimethylphenyl)propanamide]	10 to 90	> 75
CC(=O)Nc1ccc(CC(C#N)C(=O)Nc2nc(-c3ccccc3)cs2)cc1 (stereo not drawn) [Preparative Example 128, 3-(4-acetamidophenyl)-2-cyano-N-(4-phenylthiazol-2-yl)propanamide]	–	50 to 75
N#CC(Cc1cc(Cl)c(O)c(Cl)c1)C(=O)Nc1nc(-c2ccc(OC(F)(F)F)cc2)cs1 (stereo not drawn) [Preparative Example 137, 2-cyano-3-(3,5-dichloro-4-hydroxyphenyl)-N-(4-(4-(trifluoromethoxy)phenyl)thiazol-2-yl)propanamide]	2 to 10	< 50
Cc1ccc(-c2csc(NC(=O)C(C#N)Cc3ccc(O)c(O)c3)n2)cc1 (stereo not drawn) [Preparative Example 133, 2-cyano-3-(3,4-dihydroxyphenyl)-N-(4-(p-tolyl)thiazol-2-yl)propanamide]	2 to 10	< 50
N#CC(Cc1ccc2nc[nH]c2c1)C(=O)Nc1nc(-c2ccccc2)cs1 (stereo not drawn) [Preparative Example 142, 3-(1H-benzo[d]imidazol-6-yl)-2-cyano-N-(4-phenylthiazol-2-yl)propanamide]	10 to 90	< 50
N#Cc1ccc(-c2csc(NC(=O)C(C#N)Cc3ccc(O)c(O)c3)n2)cc1 (stereo not drawn) [Preparative Example 131, 2-cyano-N-(4-(4-cyanophenyl)thiazol-2-yl)-3-(3,4-dihydroxyphenyl)propanamide]	2 to 10	50 to 75
N#CC(Cc1cc(Cl)c(O)c(Cl)c1)C(=O)Nc1nc(-c2ccc3ccccc3c2)cs1 (stereo not drawn) [Preparative Example 143, 2-cyano-3-(3,5-dichloro-4-hydroxyphenyl)-N-(4-(naphthalen-2-yl)thiazol-2-yl)propanamide]	2 to 10	< 50
Cc1ccc(-c2sc(NC(=O)C(C#N)Cc3ccc(O)c(O)c3)nc2-c2ccccc2)cc1 (stereo not drawn) [Preparative Example 135, 2-cyano-3-(3,4-dihydroxyphenyl)-N-(4-phenyl-5-(p-tolyl)thiazol-2-yl)propanamide]	< 2	> 75
Cc1cc(-c2csc(NC(=O)C(C#N)Cc3ccc(O)c(O)c3)n2)cs1 (stereo not drawn) [Preparative Example 152, 2-cyano-3-(3,4-dihydroxyphenyl)-N-(4-(5-methylthiophen-3-yl)thiazol-2-yl)propanamide]	2 to 10	< 50
N#CC(Cc1ccc(O)c(O)c1)C(=O)Nc1nc(-c2ccc3c(c2)CCCC3)cs1 (stereo not drawn) [Preparative Example 153, 2-cyano-3-(3,4-dihydroxyphenyl)-N-(4-(5,6,7,8-tetrahydronaphthalen-2-yl)thiazol-2-yl)propanamide]	2 to 10	> 75
N#CC(Cc1cc(Cl)c(O)c(Cl)c1)C(=O)Nc1nc(-c2ccccc2)c(-c2ccccc2)s1 (stereo not drawn) [Preparative Example 134, 2-cyano-3-(3,5-dichloro-4-hydroxyphenyl)-N-(4,5-diphenylthiazol-2-yl)propanamide]	2 to 10	< 50
N#CC(Cc1ccc(O)c(O)c1)C(=O)Nc1nc(-c2ccc(C3CCCCC3)cc2)cs1 (stereo not drawn) [Preparative Example 154, 2-cyano-N-(4-(4-cyclohexylphenyl)thiazol-2-yl)-3-(3,4-dihydroxyphenyl)propanamide]	2 to 10	> 75
N#CC(Cc1cc(C(F)(F)F)cc(C(F)(F)F)c1)C(=O)Nc1nc(-c2ccccc2)cs1 (stereo not drawn) [Preparative Example 163, 3-(3,5-bis(trifluoromethyl)phenyl)-2-cyano-N-(4-phenylthiazol-2-yl)propanamide]	–	> 75
N#Cc1cc(CC(C#N)C(=O)Nc2nc(-c3ccccc3)cs2)ccc1O (stereo not drawn) [Preparative Example 151, 2-cyano-3-(3-cyano-4-hydroxyphenyl)-N-(4-phenylthiazol-2-yl)propanamide]	10 to 90	< 50
CC(c1ccc(O)c(O)c1)C(C#N)C(=O)Nc1nc(-c2ccccc2)cs1 (stereo not drawn) [Preparative Example 177, 2-cyano-3-(3,4-dihydroxyphenyl)-N-(4-phenylthiazol-2-yl)butanamide]	–	50 to 75

Second part, led by results:

IC50 [1] [µM]	SMILES	inhibition at 25 µM [2] [%]
< 2	COc1ccc(-c2csc(NC(=O)C(C#N)Cc3ccc(O)c(O)c3)n2)c(F)c1 (stereo not drawn) [Preparative Example 173, 2-cyano-3-(3,4-dihydroxyphenyl)-N-(4-(2-fluoro-4-methoxyphenyl)thiazol-2-yl)propanamide]	> 75
< 2	Cc1ccc(-c2csc(NC(=O)C(C#N)Cc3ccc(O)c(O)c3)n2)nc1 (stereo not drawn) [Preparative Example 165, 2-cyano-3-(3,4-dihydroxyphenyl)-N-(4-(5-methylpyridin-2-yl)thiazol-2-yl)propanamide]	> 75
2 to 10	CC(C)c1ccc(-c2csc(NC(=O)C(C#N)Cc3ccc(O)c(O)c3)n2)cc1 (stereo not drawn) [Preparative Example 166, 2-cyano-3-(3,4-dihydroxyphenyl)-N-(4-(4-isopropylphenyl)thiazol-2-yl)propanamide]	> 75
2 to 10	N#CC(Cc1ccc(O)c(O)c1)C(=O)Nc1nc(-c2ccccc2C(F)(F)F)cs1 (stereo not drawn) [Preparative Example 159, 2-cyano-3-(3,4-dihydroxyphenyl)-N-(4-(2-(trifluoromethyl)phenyl)thiazol-2-yl)propanamide]	< 50
2 to 10	Cc1cccc(-c2csc(NC(=O)C(C#N)Cc3ccc(O)c(O)c3)n2)n1 (stereo not drawn) [Preparative Example 158, 2-cyano-3-(3,4-dihydroxyphenyl)-N-(4-(6-methylpyridin-2-yl)thiazol-2-yl)propanamide]	> 75
< 2	N#CC(Cc1ccc(O)c(O)c1)C(=O)Nc1nc(-c2ncccc2F)cs1 (stereo not drawn) [Preparative Example 172, 2-cyano-3-(3,4-dihydroxyphenyl)-N-(4-(3-fluoropyridin-2-yl)thiazol-2-yl)propanamide]	> 75
2 to 10	Cc1ccnc(-c2csc(NC(=O)C(C#N)Cc3ccc(O)c(O)c3)n2)c1 (stereo not drawn) [Preparative Example 164, 2-cyano-3-(3,4-dihydroxyphenyl)-N-(4-(4-methylpyridin-2-yl)thiazol-2-yl)propanamide]	> 75
< 2	N#CC(Cc1ccc(O)c(O)c1)C(=O)Nc1nc(-c2ccc(Cl)c(Cl)c2)cs1 (stereo not drawn) [Preparative Example 160, 2-cyano-N-(4-(3,4-dichlorophenyl)thiazol-2-yl)-3-(3,4-dihydroxyphenyl)propanamide]	50 to 75
2 to 10	COc1cccc(-c2csc(NC(=O)C(C#N)Cc3ccc(O)c(O)c3)n2)n1 (stereo not drawn) [Preparative Example 170, 2-cyano-3-(3,4-dihydroxyphenyl)-N-(4-(6-methoxypyridin-2-yl)thiazol-2-yl)propanamide]	50 to 75
10 to 90	CC(C#N)(Cc1ccc(O)c(O)c1)C(=O)Nc1nc(-c2ccccc2)cs1 (stereo not drawn) [Preparative Example 179, 2-cyano-3-(3,4-dihydroxyphenyl)-2-methyl-N-(4-phenylthiazol-2-yl)propanamide]	< 50
2 to 10	N#CC(Cc1ccc(O)c(O)c1)C(=O)Nc1nc(-c2cccc(Cl)c2)cs1 (stereo not drawn) [Preparative Example 162, N-(4-(3-chlorophenyl)thiazol-2-yl)-2-cyano-3-(3,4-dihydroxyphenyl)propanamide]	50 to 75
10 to 90	CC(C)(C)c1cc(CC(C#N)C(=O)Nc2nc(-c3ccccn3)cs2)cc(C(C)(C)C)c1O (stereo not drawn) [Preparative Example 169, 2-cyano-3-(3,5-di-tert-butyl-4-hydroxyphenyl)-N-(4-(pyridin-2-yl)thiazol-2-yl)propanamide]	> 75
2 to 10	Cc1ccccc1-c1csc(NC(=O)C(C#N)Cc2ccc(O)c(O)c2)n1 (stereo not drawn) [Preparative Example 161, 2-cyano-3-(3,4-dihydroxyphenyl)-N-(4-(o-tolyl)thiazol-2-yl)propanamide]	50 to 75
